Assay results as given in patent publication US20080089860A1, “Therapeutic compositions and methods useful in treating cancer” (priority 2006, published 2008).

Experiments:
MKP1 = target: T1, MKP1 (Homo sapiens, UniProt P28562); assay: In vitro PTPase assay, GST/MKP1; type: biochemical; settings: for inhibition of MKP1: section VII comparison
T1 construct: made in house; host or cells: E. coli DH5a
T1 sequence (P28562 13-367 limits assumed): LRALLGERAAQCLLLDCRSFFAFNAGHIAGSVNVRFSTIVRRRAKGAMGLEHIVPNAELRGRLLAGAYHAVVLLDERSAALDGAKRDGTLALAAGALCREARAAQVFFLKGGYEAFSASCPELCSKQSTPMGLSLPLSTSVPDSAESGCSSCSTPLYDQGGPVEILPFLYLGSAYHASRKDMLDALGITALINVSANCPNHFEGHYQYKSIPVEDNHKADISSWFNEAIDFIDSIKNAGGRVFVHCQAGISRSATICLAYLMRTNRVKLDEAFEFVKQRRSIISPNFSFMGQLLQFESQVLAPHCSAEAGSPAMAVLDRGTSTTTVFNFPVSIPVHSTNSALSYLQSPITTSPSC
Method: In vitro PTPase activities were measured using the commercial protein tyrosine phosphatase assay kit (Upstate Biotechnology, Inc. (“UBI”)) following established procedure known to one of skill in the art. This assay measures the in vitro dephosphorylation of a synthetic phosphotyrosine peptide of the sequence Arg-Arg-Leu-Ile-Glu-Asp-Ala-Gle-T- -yr-Ala-Ala-Arg-Gly, wherein the tyrosine is phosphorylated (SEQ ID NO: 3). Briefly, 0.01 µg of GST/PTPase fusion proteins was incubated in 50 µl of Tris buffer (10 mM Tris, pH 7.4) containing different concentrations of inhibitors or chemicals (0-1,000 µg/ml) at 22° C. for 10 minutes, followed by addition of 0.2 mM of the phosphotyrosine peptide and incubation at 22° C. for 18 hours. 100 µl of Malachite Green solution was added and incubated for 5 minutes, and the absorbance at 660 nm was measured after 5 minutes.
In vitro PTPase assays were used to determine the effects of levamisole (Sigma), pentamidine (American Pharmaceutical Partners, Inc.), and ketoconazole (Sigma) on recombinant PTPases, following established procedures (Pathak et al., J. Imumol. 167, 3391 (2001); Pathak et al., Leukemia 16, 2285 (2002), Yi et al., J. Immunol. 169, 5978 (2002)) using a synthetic phosphotyrosine peptide or DiFMUP as the substrate as detailed above in section I.A.2.

WM9 cells = assay: WM9 melanoma cell growth, MTT assay; type: cell-based, human; settings: for effect on IFN-induced growth inhibition of WM9 cells: pentamidine 0.625-1.25 μg/ml, ketoconazole 40 μg/ml, sodium stibogluconate 12.5-50 μg/ml
Method: For cell proliferation assays, cells were grown in 10% FCS culture medium containing various amounts of IFNs and/or sodium stibogluconate in 96 well plates and cultured at 37° C. for 3 or 6 days as indicated. The numbers of viable cells in proliferation assays were determined by MTT assays as described in Phatak et al., J. Immunol. 167, 3391 (2001).
Dose response curves were generated for each drug alone, and also the combinations. Median effect plots were generated for IFNs alone, sodium stibogluconate alone, and the combination. The combination index (CI) was determined and plotted vs. fraction affected (FA). Data were analyzed in both modes, mutually exclusive and mutually nonexclusive. The interaction between two mutually nonexclusive drugs is described by the Equation CI=D1/Dx1+D2/Dx2+D1D2/Dx1Dx2, where Dx1 and Dx2 are the doses of drug 1 and drug 2 that are required to inhibit growth x %. […] When CI<1, drugs are synergistic, when CI=1, drugs are additive, and when CI>1, drugs are antagonistic.
Renca (Murphy, G. P., and W. J. Hrushesky. 1973. A murine renal cell carcinoma. J Natl Cancer Inst 50:1013), Jurkat (Gillis, S., and J. Watson. 1980. Biochemical and biological characterization of lymphocyte regulatory molecules. V. Identification of an interleukin 2-producing human leukemia T cell line. J Exp Med 152:1709) and WM9 (Forsberg, K., 1. Valyi-Nagy, C. H. Heldin, M. Herlyn, and B. Westermark. 1993. Platelet-derived growth factor (PDGF) in oncogenesis: development of a vascular connective tissue stroma in xenotransplanted human melanoma producing PDGF-BB. Proc Natl Acad Sci USA 90:393) cell lines were obtained from a colleague at the Cleveland Clinic Foundation (CCF) and cultured in RPMI 1640 medium supplemented with 10% fetal calf serum (FCS). […] SSG has been described previously (Yi, T., M. K. Pathak, D. J. Lindner, M. E. Ketterer, C. Farver, and E. C. Borden. 2002. Anticancer activity of sodium stibogluconate in synergy with IFNs. J Immunol 169:5978).

| SMILES | inhibition of MKP1 (MKP1) | activity against WM9 cells (WM9 cells; 0.625-20 μg/ml, single agent or with IFN-alpha) | inhibition at 40 µg/mL (WM9 cells; Homo sapiens, WM9, 40 μg/ml, single agent) [%] | effect on IFN-induced growth inhibition of WM9 cells (WM9 cells) | growth inhibition of WM9 cells (WM9 cells; pentamidine 2.5-5 μg/ml, single agent, 6 days) | inhibitory activity against MKP1 (MKP1) | growth of WM9 melanoma cells (WM9 cells; SSG 6.25-200 μg/ml, 6 days) | WM9 cells in day 6 culture (WM9 cells; single agent, 50 μg/ml and 100 μg/ml) |
| --- | --- | --- | --- | --- | --- | --- | --- | --- |
| CC(=O)N1CCN(c2ccc(OCC3COC(Cn4ccnc4)(c4ccc(Cl)cc4Cl)O3)cc2)CC1 (stereo not drawn) [ketoconazole] | substantial inhibition | no apparent activity | 67 | minor augmenting effect |  |  |  |  |
| N=C(N)c1ccc(OCCCCCOc2ccc(C(=N)N)cc2)cc1 [pentamidine] | substantial inhibition |  |  | augmented IFN-alpha-induced growth inhibition | 86-97% |  |  |  |
| O.O.O.O.O.O.O.O.O.O=C([O-])[C@@H]1[O][Sb]2([O-])([O][Sb]34([OH])[O][C@H]([C@H](O)CO)[C@H]([O]3)[C@H](C(=O)[O-])[O]4)[O][C@H]([C@H](O)CO)[C@@H]1[O]2.[Na+].[Na+].[Na+] [sodium stibogluconate] | no obvious effects |  |  | greatly enhanced |  | no obvious inhibitory activity | inhibited by SSG in a dose-dependent manner | killed all cells |
